{"source": "patent US12486218B2", "about": "“Compounds advantageous in the treatment of central nervous system diseases and disorders” (AurimMed Pharma, Inc., priority 2008, dated 2025)", "key": {"rats [1]": {"tested_on": "rats", "experiment": "Pilocarpine-induced Status Epilepticus in Rats (prevention; intervention @ 30 min)", "conditions": "for Prevention, Protection: rat, in vivo, 200 mg/kg", "procedure": "The animal testing was performed using the protocols developed in the Anticonvulsant Screening Program (ASP) at the National Institute of Neurological Disorders and Stroke (NINDS), National Institutes of Health (NIH)."}, "mice [2]": {"tested_on": "mice", "conditions": "mouse, in vivo, ip", "procedure": "(§1) The animal testing was performed according to methods known in the relevant art."}, "SMN2 promoter": {"tested_on": "SMN2 promoter", "experiment": "SMN2 promoter β-lactamase reporter assay in NSC34 motor neuron-like cells", "format": "cell-based", "description": "FIG. 30 illustrates a screen for SMN2 expression of a number of compounds described herein.\nSMN2 promoter activity was measured using NSC34 motor neuron-like cells stably transfected with a β-lactamase (BLA) reporter gene under the control of a 3.4-kilobase fragment of the SMN2 promoter. D156844 was used as a positive control for this assay."}, "rats [3]": {"tested_on": "rats", "experiment": "Preliminary Hippocampal Kindling Screening in rats (i.p.)", "format": "in vivo", "conditions": "at 65 mg/kg"}, "mice [4]": {"tested_on": "mice", "experiment": "Maximal Electroshock Seizure (MES) test, mice i.p.", "format": "in vivo", "conditions": "for ED50: Mus musculus"}, "mice [5]": {"tested_on": "mice", "experiment": "Minimal motor impairment (MID50), mice i.p.", "conditions": "mice, i.p.", "procedure": "as §1"}, "C3A hepatocyte cells [6]": {"tested_on": "C3A hepatocyte cells", "experiment": "ACTIVTox LDH release assay", "format": "cell-based", "description": "Compounds A, I, H, and F were tested by Stem Cell Innovations, Inc. (Houston, TX) in their ACTIVTox® Human Liver Cell-based assays (using C3A hepatocyte cells). Specifically, the compounds were tested in the LDH release assay, which determines the release of Lactate DeHydrogenase (an indicator of cell death) at various concentrations of test compound.\nA concentration of 100 µM of test compound is a much higher level of exposure to liver cells than would ever be expected under physiological conditions. Therefore, using 100 μM as a standard test concentration (for comparative purposes), the ratio of the absorbance (which measures the level of LDH release) resulting from the presence of the test compound versus the negative control is a value known as the “average (or mean) fold control” (Average Fold Control=Average of Absorbance/Average of Negative Control)."}, "C3A hepatocyte cells [7]": {"tested_on": "C3A hepatocyte cells", "experiment": "ACTIVTox Cell Proliferation Assay", "format": "cell-based", "conditions": "at a concentration of 100 μM"}, "mice [8]": {"tested_on": "mice", "experiment": "6 Hz (minimal clonic seizure) model, mice i.p.", "format": "in vivo", "conditions": "ip"}, "rats [9]": {"tested_on": "rats", "experiment": "Hippocampal Kindled Rats model", "format": "in vivo", "conditions": "Rattus norvegicus"}, "rats [10]": {"tested_on": "rats", "experiment": "MES test, rats p.o.", "format": "in vivo", "conditions": "Rattus norvegicus, po"}, "rats [11]": {"tested_on": "rats", "experiment": "s.c. MET test, rats p.o.", "format": "in vivo", "conditions": "Rattus norvegicus, p.o."}, "mice [12]": {"tested_on": "mice", "experiment": "Subcutaneous Metrazol Seizure threshold (s.c. MET) test, mice i.p.", "format": "in vivo", "conditions": "for ED50: Mus musculus"}, "[13]": {"tested_on": "inclusion of exon 7 in SMN2 mRNAs", "experiment": "Exon 7 inclusion BLA reporter assay in NSC34 cell line", "format": "cell-based", "excerpt": "To measure changes in the inclusion of exon 7 in SMN2 mRNAs, another NSC34 cell line was used that stably transfected with a reporter construct which expresses BLA when exon 7 is included in the SMN2 minigene mRNAs. 5-(N-ethyl-N-isopropyl)-amiloride (EIPA) was used as a positive control for this assay. Data for tis assay is illustrated in FIG. 30."}, "rats [14]": {"tested_on": "rats", "experiment": "Minimal motor impairment (MID50), rats p.o.", "format": "in vivo"}, "in vivo": {"experiment": "in vivo", "conditions": "mouse, ip", "procedure": "as §1"}, "sodium channels": {"tested_on": "sodium channels", "conditions": "by way of comparison; cited from earlier work"}, "rats [15]": {"tested_on": "rats", "conditions": "male versus female kindled rats; cited from earlier work"}}, "note": "“And” between values parts separate entries of the source, which are not always exact repeats. Identical values can stand only once. Like-named read-outs stand apart in the source and are kept apart here.", "data": [{"smiles": "COc1ccc(C(C)CC(N)=O)cc1", "note": "(racemic) [BZ]", "values": [{"measurement": "Prevention, Protection", "setting": "rats [1]", "result": 100, "unit": "%"}, {"measurement": "MID50, result in words", "setting": "mice [2]", "result": "No"}, {"measurement": "Promoter (SMN2 promoter test, summary YES/NO)", "setting": "SMN2 promoter", "result": "YES"}, {"measurement": "SMN2 promoter activity", "setting": "SMN2 promoter", "result": "increased SMN2 promoter activity"}]}, {"smiles": "CC(C)(CC(N)=O)c1ccc(Cl)cc1", "note": "[Compound A, 3-(4-Chlorophenyl)-3-methylbutyramide]", "values": [{"measurement": "seizure score, Preliminary Hippocampal Kindling Screening", "setting": "rats [3]", "result": "zero"}, {"measurement": "responders at 120 mg/kg", "setting": "rats [1]; Rattus norvegicus, 0.5 h, read-out: Intervention @ 30 min, Protection", "result": 57, "unit": "%"}, {"measurement": "responders at 65 mg/kg", "setting": "rats [1]; Rattus norvegicus, read-out: Prevention, Protection", "result": 86, "unit": "%"}, {"measurement": "ED50", "setting": "mice [4]; ip, mice", "result": 41.6, "unit": "mg/kg"}, {"measurement": "ED50", "setting": "mice [4]; ip, mice i.p., @ 0.25 hr", "result": 41.6, "unit": "mg/kg"}, {"measurement": "MID50 (median minimal motor impairment dose)", "setting": "mice [5]", "result": 107.87, "unit": "mg/kg"}, {"measurement": "LDH release, mean fold control", "setting": "C3A hepatocyte cells [6]; at 100 μM, C3A hepatocyte cells, value below 1.75 = no cyto- or hepatotoxic activity", "result": 1.05}, {"measurement": "cyto- or hepatotoxicity, ACTIVTox data", "setting": "C3A hepatocyte cells [6]; at physiologically relevant concentrations (i.e., <100 µM)", "result": "not cyto- or hepatotoxic"}, {"measurement": "SMN2 promoter activity", "setting": "SMN2 promoter; treatment for 19 hours at a concentration of 1 μM", "result": "increased SMN2 promoter activity"}, {"measurement": "Cell Proliferation Assay, mean fold control", "setting": "C3A hepatocyte cells [7]", "result": 1.15}, {"measurement": "toxicity to proliferating cells", "setting": "C3A hepatocyte cells [7]", "result": "non-toxic"}, {"measurement": "ED50", "setting": "mice [8]; Mus musculus, mice, i.p., read-out: 6 Hz ED50", "result": 47.6, "unit": "mg/kg"}, {"measurement": "ED50", "setting": "rats [9]", "result": 26, "unit": "mg/kg"}, {"measurement": "ED50", "setting": "rats [10]", "result": 28.8, "unit": "mg/kg"}, {"measurement": "ED50", "setting": "rats [11]", "result": 45, "unit": "mg/kg"}, {"measurement": "ED50", "setting": "mice [12]; mice i.p., @ 0.25 hr", "result": 39.3, "unit": "mg/kg"}, {"measurement": "ED50", "setting": "mice [12]; mice, i.p.", "result": 39.3, "unit": "mg/kg"}, {"measurement": "effect on the inclusion of exon 7 in SMN2 transcripts", "setting": "[13]; NSC34 exon 7 BLA reporter cells", "result": "positive effect on the inclusion of exon 7"}, {"measurement": "Exon 7 inclusion (summary YES/NO)", "setting": "[13]; Table 13 summary", "result": "YES"}, {"measurement": "MID50", "setting": "rats [14]", "result": 244.90, "unit": "mg/kg"}, {"measurement": "TD50", "setting": "in vivo", "result": 108, "unit": "mg/kg"}]}, {"smiles": "Cc1ccc(C(CC(N)=O)C2CC2)cc1", "note": "(centres unmarked) [AL, 3-Cyclopropyl-3-ρ-tolyl-propionamide]", "values": [{"measurement": "Prevention, Protection", "setting": "rats [1]", "result": 100, "unit": "%"}, {"measurement": "activity in the MES test", "setting": "mice [4]; mouse, in vivo, 100 mg/kg", "result": "activity"}, {"measurement": "MID50, result in words", "setting": "mice [2]", "result": "No"}, {"measurement": "SMN2 promoter activity", "setting": "SMN2 promoter", "result": "increased SMN2 promoter activity"}, {"measurement": "6 Hz (32 mA), fraction of animals", "setting": "mice [8]; mouse, in vivo, 100 mg/kg", "result": "4/4, 2/4, and 2/4 , 1/4 @"}]}, {"smiles": "Nc1nnc(-c2cccc(Cl)c2Cl)c(N)n1", "note": "[lamotrigine]", "values": [{"measurement": "% of control inhibited, sodium currents, typical sodium-channel-blocking drugs", "setting": "sodium channels", "result": "about 50%"}]}, {"smiles": "O=C1NC(=O)C(c2ccccc2)(c2ccccc2)N1", "note": "[phenytoin]", "values": [{"measurement": "efficacy in the two genders (comparison drug)", "setting": "rats [15]", "result": "significantly less effective in male kindled rats than it is in female kindled rats"}, {"measurement": "% of control inhibited, sodium currents, typical sodium-channel-blocking drugs", "setting": "sodium channels", "result": "about 50%"}]}, {"smiles": "NC(=O)CC1(c2cccc(Cl)c2)CCCC1", "note": "[CX]", "values": [{"measurement": "MES, fraction of animals", "setting": "mice [4]; mouse, in vivo, ip, 100 mg/kg", "result": "4/4 @ and 3/4, 2/4 @"}, {"measurement": "MID50, fraction of animals", "setting": "mice [2]; 100 mg/kg", "result": "8/8 @ 0.25 hrs"}, {"measurement": "Promoter (SMN2 promoter test, summary YES/NO)", "setting": "SMN2 promoter", "result": "YES"}, {"measurement": "SMN2 promoter activity", "setting": "SMN2 promoter", "result": "increased SMN2 promoter activity"}, {"measurement": "s.c. MET, fraction of animals", "setting": "mice [12]; mouse, in vivo, 100 mg/kg", "result": "2/4 @ 0.25 hrs"}]}]}
